According to patent publication US12247004B2, “2-amino-N-(amino-oxo-aryl-lambda6-sulfanylidene)acetamide compounds and their therapeutic use” (Oxford Drug Design Limited, priority 2019, dated 2025):
Values after ≈ are worked out from the molar mass of the structure shown. Where a name gives a salt, the structure may show the parent alone. Read-outs that look alike come from different tables or passages of the source.

What was measured:
[1] = system: bacteria (ATCC reference strains); experiment: Antibacterial activity, MIC by broth micro-dilution (CLSI)
[2] = biological target: Leucyl-tRNA synthetase (LeuRS) (Escherichia coli (strain K12), UniProt P07813); experiment: Leucyl-tRNA synthetase enzyme inhibition (AMP-Glo; single point % inhibition at 100 μM and IC50); format: biochemical
Chain of Leucyl-tRNA synthetase (LeuRS) (P07813 whole entry, looked up): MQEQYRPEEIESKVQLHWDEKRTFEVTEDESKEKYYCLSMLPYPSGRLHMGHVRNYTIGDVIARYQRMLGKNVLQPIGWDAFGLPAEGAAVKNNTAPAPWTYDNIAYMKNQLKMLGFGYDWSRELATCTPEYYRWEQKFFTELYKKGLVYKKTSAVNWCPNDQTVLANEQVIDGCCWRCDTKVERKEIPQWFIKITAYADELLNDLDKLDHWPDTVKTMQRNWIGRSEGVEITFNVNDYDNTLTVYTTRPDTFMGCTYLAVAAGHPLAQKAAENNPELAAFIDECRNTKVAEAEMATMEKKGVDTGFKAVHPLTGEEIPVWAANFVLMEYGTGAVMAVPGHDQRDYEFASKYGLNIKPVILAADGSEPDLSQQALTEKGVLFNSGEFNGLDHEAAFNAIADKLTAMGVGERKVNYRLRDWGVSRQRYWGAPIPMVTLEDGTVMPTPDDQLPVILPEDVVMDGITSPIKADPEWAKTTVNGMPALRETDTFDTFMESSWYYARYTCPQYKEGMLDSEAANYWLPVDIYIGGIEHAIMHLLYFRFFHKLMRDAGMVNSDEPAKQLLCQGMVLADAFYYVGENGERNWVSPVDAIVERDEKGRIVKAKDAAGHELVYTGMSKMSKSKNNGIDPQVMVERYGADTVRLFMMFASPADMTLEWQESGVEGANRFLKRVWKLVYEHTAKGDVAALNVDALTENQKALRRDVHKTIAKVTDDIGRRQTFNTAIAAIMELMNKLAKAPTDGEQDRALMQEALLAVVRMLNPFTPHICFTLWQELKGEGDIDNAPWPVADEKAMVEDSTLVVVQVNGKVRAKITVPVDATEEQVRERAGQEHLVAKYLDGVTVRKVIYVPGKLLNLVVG

[3] = Human cell viability / cytotoxicity (CellTiter-Glo, 24 hours); format: cell-based; conditions: human, HepG2 cells (ATCC HB-8065); HepG2 ATCC HB-8065, 24 hours; read-out: Cytotoxicity in HepG2 ATCC HB-8065 Cell Line, IC50
Procedure: Study 3—Human Cell Viability
Compounds were assessed for potential non-specific cytotoxic effects against a human hepatic cell line (HepG2 ATCC HB-8065). 96-well plates were seeded with HepG2 cells in concentration of 15,000 cells per well in 100 μL of MEM growth media completed with 1% NEAA and 1% sodium pyruvate. Border wells were filled with 100 μL of sterile PBS. Two days upon cells incubation, the compounds were added. Compound dilutions were prepared in 96-well V-bottom plate in pure DMSO. Growth media from 5 plates were aspirated and replaced with 98.7 μL of fresh growth media. 1.28 μL of compounds prepared in V-bottom plates were transferred with multichannel pipette into test plates (78.1× dilution). Final DMSO concentration was 1.28% per well. In control wells, 1.28 μL of DMSO was added in 98.7 μL of media. Compounds were tested in duplicates. Cells were incubated with compounds for 24 hours when cell viability was assessed by measuring ATP levels. ATP levels were measured by adding 50 μL of CellTiter-Glo reagent to each well and after 5 minutes of incubation luminescence was measured with SpectraMax i3. The potential effect of tested compounds on cell viability was determined by comparing the signal obtained in presence of different concentrations of the compounds with those obtained in the presence of DMSO only. The potential effects were then calculated and presented as IC50 values (μg/mL).

[4] = Acinetobacter baumannii, read-out: Antibacterial Activity (MIC), E = A. baumannii B1931
[5] = Enterobacter cloacae, read-out: Antibacterial Activity (MIC), B = Enterobacter cloacae B1966
[6] = Escherichia coli, ATCC25922, read-out: Antibacterial Activity (MIC), A = E. coli ATCC 25922
[7] = Escherichia coli, BAA2469, read-out: Antibacterial Activity (MIC), G = E. coli BAA-2469
[8] = Haemophilus influenzae, ATCC49247, read-out: Antibacterial Activity (MIC), F = H. influenzae ATCC 49247
[9] = Klebsiella pneumoniae, ATCC700603, read-out: Antibacterial Activity (MIC), C = K. pneumoniae ATCC 700603
[10] = Pseudomonas aeruginosa, ATCC27853, read-out: Antibacterial Activity (MIC), D = P. aeruginosa ATCC 27853
[11] = E. coli LeuRS, read-out: Enzyme Inhibition - IC50, E. coli LeuRS

Row | Structure (SMILES) | MIC [1, 4] [µg/mL] | MIC [1, 5] [µg/mL] | MIC [1, 6] [µg/mL] | MIC [1, 7] [µg/mL] | MIC [1, 8] [µg/mL] | MIC [1, 9] [µg/mL] | MIC [1, 10] [µg/mL] | IC50 [2] [µM] | IC50 at 24 h [3] [µg/mL] | IC50 [2, 11] [µM]
1 | CC(C)C[C@H](N)C(=O)N=[S@](N)(=O)c1cccc(Cl)c1.Cl [ANASIA-002-1] | 32 | 8 | 1 | 4 | 2 | 32 | > 64 | 0.0275 | > 64 | –
2 | CC(C)C[C@H](N)C(=O)N=[S@@](N)(=O)c1cccc(Cl)c1.Cl [ANASIA-002-2] | > 64 | > 64 | 64 | – | > 64 | > 64 | > 64 | – | > 64 | 1.05
3 | CC(C)C[C@H](N)C(=O)N=S(N)(=O)c1cccc(Cl)c1 (stereo partly shown) [ANASIA-002] | > 45.3 | > 45.3 | 2.83 (≈ 9.31 µM) | – | 5.66 (≈ 18.6 µM) | > 22.6 | > 64 | – | > 64 | 0.11
4 | CC(C)C[C@H](N)C(=O)N=[S@](N)(=O)c1ccccc1.Cl [ANASIA-003-1, (S)-2-amino-N—((S)-amino(oxo)(phenyl)-λ6-sulfanylidene)-4-methylpentanamide hydrochloride] | 64 | 16 | 4 | – | 8 | 16 | 64 | – | > 64 | 0.0615
5 | CC(C)C[C@H](N)C(=O)N=S(N)(=O)c1ccccc1 (stereo partly shown) [ANASIA-003] | 32 (≈ 119 µM) | 16 (≈ 59.4 µM) | 2.83 (≈ 10.5 µM) | – | 16 (≈ 59.4 µM) | 8 (≈ 29.7 µM) | 50.8 (≈ 189 µM) | – | > 64 | 0.0929
6 | Cc1csc(S(N)(=O)=NC(=O)[C@@H](N)CC(C)C)n1 (stereo partly drawn) [ANASIA-004, (2S)-2-amino-N-(amino(4-methylthiazol-2-yl)(oxo)-λ6-sulfanylidene)-4-methyl pentanamide hydrochloride] | 64 | > 64 | 16 | – | 8 | > 64 | 64 | – | > 64 | 0.0916
7 | Cc1cccc([S@](N)(=O)=NC(=O)[C@@H](N)CC(C)C)c1 [ANASIA-005-2] | > 64 | 64 (≈ 226 µM) | 8 (≈ 28.2 µM) | 32 (≈ 113 µM) | 16 (≈ 56.5 µM) | > 64 | > 64 | – | > 64 | 0.151
8 | Cc1cccc(S(N)(=O)=NC(=O)[C@@H](N)CC(C)C)c1 (stereo partly shown) [ANASIA-005] | 64 (≈ 226 µM) | 32 (≈ 113 µM) | 8 (≈ 28.2 µM) | – | 32 (≈ 113 µM) | 32 (≈ 113 µM) | > 64 | – | > 64 | 0.381
9 | CC(C)C[C@H](N)C(=O)N=S(N)(=O)c1cccnc1 (stereo partly shown) [ANASIA-006] | > 64 | > 64 | 64 (≈ 237 µM) | – | > 64 | > 64 | > 64 | – | > 64 | 0.708
10 | CC(C)C[C@H](N)C(=O)N=[S@](N)(=O)c1ccsc1.Cl [ANASIA-008-1] | 32 | 8 | 2 | – | 4 | 8 | 32 | 0.0306 | > 64 | –
11 | CC(C)C[C@H](N)C(=O)N=S(N)(=O)c1ccsc1 (stereo partly shown) [ANASIA-008] | 32 (≈ 116 µM) | 16 (≈ 58.1 µM) | 2 (≈ 7.26 µM) | – | 16 (≈ 58.1 µM) | 8 (≈ 29 µM) | 32 (≈ 116 µM) | – | > 64 | 0.144
12 | CC(C)C[C@H](N)C(=O)N=[S@@](N)(=O)c1ccc(Cl)s1 [ANASIA-009-2] | 64 (≈ 207 µM) | 32 (≈ 103 µM) | 4 (≈ 12.9 µM) | – | 8 (≈ 25.8 µM) | 32 (≈ 103 µM) | > 64 | – | > 64 | 0.149
13 | CC(C)C[C@H](N)C(=O)N=[S@](N)(=O)c1sccc1Cl.Cl [ANASIA-012-1] | 64 | 32 | 4 | 16 | 8 | 64 | > 64 | 0.0874 | > 64 | –
14 | CC(C)C[C@H](N)C(=O)N=S(N)(=O)c1sccc1Cl (stereo partly shown) [ANASIA-012] | > 64 | 64 (≈ 207 µM) | 8 (≈ 25.8 µM) | 32 (≈ 103 µM) | 16 (≈ 51.6 µM) | > 64 | > 64 | – | > 64 | 0.155
15 | Cc1ccc([S@@](N)(=O)=NC(=O)[C@@H](N)CC(C)C)s1.Cl [ANASIA-014-1] | 64 | 16 | 4 | – | 4 | 64 | > 64 | 0.0811 | > 64 | –
16 | Cc1ccsc1[S@@](N)(=O)=NC(=O)[C@@H](N)CC(C)C.Cl [ANASIA-015-1] | 64 | 16 | 2 | 5.66 | 8 | 16 | 64 | 0.0565 | > 64 | –
17 | CC(C)C[C@H](N)C(=O)N=S(N)(=O)c1ccc(C(F)F)s1 (stereo partly shown) [ANASIA-017] | > 64 | > 64 | 16 (≈ 49.2 µM) | – | 8 (≈ 24.6 µM) | > 64 | > 64 | 0.145 | > 64 | –
18 | CC(C)C[C@H](N)C(=O)N=[S@](N)(=O)c1cc(F)ccc1F.Cl [ANASIA-024-1] | > 64 | > 64 | 16 | – | 16 | > 64 | > 64 | 0.141 | > 64 | –
19 | CC(C)C[C@H](N)C(=O)N=[S@](N)(=O)c1cccc(C#N)c1.Cl [ANASIA-041-1] | > 64 | > 64 | 5.66 | 64 | 2.83 | > 64 | > 64 | 0.0177 | > 64 | –
20 | CC(C)C[C@H](N)C(=O)N=[S@](N)(=O)c1cccc(C(C)C)c1.Cl [ANASIA-043-1] | > 64 | > 64 | > 64 | – | 45.3 | > 64 | > 64 | 0.112 | > 64 | –
21 | CC(C)C[C@H](N)C(=O)N=[S@](N)(=O)c1cccc(Br)c1.Cl [ANASIA-044-1] | 64 | 16 | 2 | – | 2 | 64 | > 64 | 0.071 | > 64 | –
22 | CC(C)C[C@H](N)C(=O)N=[S@](N)(=O)c1cccc(Cl)c1Cl.Cl [ANASIA-046-1] | > 64 | > 64 | > 64 | – | 64 | > 64 | > 64 | 0.96 | > 64 | –
23 | CC(C)C[C@H](N)C(=O)N=[S@](N)(=O)c1cccc(Oc2ccc(Cl)cc2)c1.Cl [ANASIA-047-1] | > 64 | > 64 | > 64 | – | 64 | > 64 | > 64 | 0.0764 | 46.5 | –
24 | CC(C)C[C@H](N)C(=O)N=[S@](N)(=O)c1scc(Cl)c1Cl.Cl [ANASIA-081-1] | 32 | – | 2 | 8 | 1 | 256 | > 64 | 0.0339 | > 64 | –
25 | CC(C)C[C@H](N)C(=O)N=[S@@](N)(=O)c1ccccc1F.Cl [ANASIA-087-1] | > 64 | 64 | 11.3 | – | 32 | > 64 | > 64 | 0.289 | > 64 | –
26 | CC(C)C[C@H](N)C(=O)N=[S@](N)(=O)c1cccc(OC(F)F)c1.Cl [ANASIA-088-1] | > 64 | 64 | 4 | 32 | 4 | > 256 | > 64 | 0.0753 | > 64 | –
27 | CC(C)C[C@H](N)C(=O)N=[S@](N)(=O)c1ccsc1Cl.Cl [ANASIA-092-1] | 64 | – | 2 | 11.3 | 2 | 64 | > 64 | 0.0484 | > 64 | –
